Earlier results as cited in PMC6151550, “Inhibitory Effect of Selaginellins from Selaginella tamariscina (Beauv.) Spring against Cytochrome P450 and Uridine 5′-Diphosphoglucuronosyltransferase Isoforms on Human Liver Microsomes” (Molecules : A Journal of Synthetic Chemistry and Natural …, 2017).

Columns and labels:
UGT1A1 = test system: UGT1A1; parameters: method as in PMID 25216634; conditions: read-out: Ki against UGT1A1-mediated SN-38 glucuronidation; cited from earlier work
CYP2C8 = conditions: cited from earlier work

CC(C)=CCc1cc2c(cc1O)oc(=O)c1c3ccc(O)cc3oc21 [psoralidin]
Ki (UGT1A1): 5.8 µM

Cc1c(C)c2c(c(C)c1O)CCC(C)(COc1ccc(CC3SC(=O)NC3=O)cc1)O2 (stereo not drawn) [troglitazone]
IC50 (CYP2C8): 2.3 µM
